According to PubChem BioAssay (NCI):
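Five compound concentrations were applied to cells in 96-well plates for 48 hours; endpoints were derived by simple linear interpolation of the resulting dose-response curve. TGI: concentration producing complete growth inhibition.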

Columns and labels:
Assay in all cases: NCI tumour cell line growth inhibition, 48 h
[1] = tested on: 786-0 renal
[2] = tested on: COLO 205 colon
[3] = tested on: EKVX NSCLC
[4] = tested on: M14 melanoma
[5] = tested on: DLD-1 colon
[6] = tested on: OVCAR-5 ovarian
[7] = tested on: SK-OV-3 ovarian
[8] = tested on: K-562 leukemia
[9] = tested on: RXF-631 renal
[10] = tested on: RXF 393 renal
[11] = tested on: HT29 colon
[12] = tested on: HCT-15 colon
[13] = tested on: UO-31 renal
[14] = tested on: MALME-3M melanoma
[15] = tested on: SF-295 CNS
[16] = tested on: SK-MEL-28 melanoma
[17] = tested on: LXFL 529 NSCLC
[18] = tested on: IGROV1 ovarian
[19] = tested on: SK-MEL-5 melanoma
[20] = tested on: SNB-75 CNS
[21] = tested on: HL-60(TB) leukemia
[22] = tested on: M19-MEL melanoma
[23] = tested on: SW-620 colon
[24] = tested on: NCI-H226 lung
[25] = tested on: HCT-116 colon
[26] = tested on: RPMI-8226 leukemia
[27] = tested on: KM20L2 colon
[28] = tested on: OVCAR-8 ovarian
[29] = tested on: NCI-H23 lung
[30] = tested on: U251 CNS
[31] = tested on: XF 498 CNS
[32] = tested on: CAKI-1 renal
[33] = tested on: OVCAR-3 ovarian
[34] = tested on: SNB-19 CNS
[35] = tested on: HOP-92 NSCLC
[36] = tested on: A549 NSCLC
[37] = tested on: SNB-78 CNS
[38] = tested on: SF-539 CNS
[39] = tested on: NCI-H460 lung
[40] = tested on: SN12C renal
[41] = tested on: HOP-18 NSCLC
[42] = tested on: KM12 colon
[43] = tested on: UACC-257 melanoma
[44] = tested on: HOP-62 NSCLC
[45] = tested on: OVCAR-4 ovarian
[46] = tested on: A498 renal
[47] = tested on: LOX IMVI melanoma
[48] = tested on: HCC-2998 colon
[49] = tested on: NCI-H522 lung
[50] = tested on: SF-268 CNS
[51] = tested on: TK-10 renal
[52] = tested on: SR leukemia
[53] = tested on: CCRF-CEM leukemia

Measured: TGI

N#Cc1cc([N+](=O)[O-])ccc1NC(=O)C(=O)Nn1c(=S)[nH]c2ccccc2c1=O
> 100 µM: [1] | [2] | [3] | [4] | [5] | [6] | [7] | [8] | [9] | [10] | [11] | [12] | [13] | [14] | [15] | [16] | [17] | [18] | [19] | [20] | [21] | [22] | [23] | [24] | [25] | [26] | [27] | [28] | [29] | [30] | [31] | [32] | [33] | [34] | [35] | [36] | [37] | [38] | [39] | [40] | [41] | [42] | [43] | [44] | [45] | [46] | [47] | [48] | [49] | [50] | [51] | [52] | [53]
